Assay in all cases: biochemical
Holding throughout (format): biochemical

The target of test [1] is 363 human kinases (including Aurora A/B/C) (Homo sapiens, UniProt O00311). The note with it: CDC7/DBF4, [ATP] 15 µM; for remaining activity at 0.5 µM / remaining activity at 0.1 µM: read-out: % Enzyme Activity (relative to DMSO controls); for remaining activity at 0.1 µM: 100 nM.
Excerpt: (§1) However, the Aurora A/B selectivity ratios derived from our in vitro and in vivo data can be compared to prioritize inhibitors.
The target in test [2] is T1, 363 human kinases (including Aurora A/B/C) (Homo sapiens, UniProt Q13043).
T1 sequence (Q13043 1-487): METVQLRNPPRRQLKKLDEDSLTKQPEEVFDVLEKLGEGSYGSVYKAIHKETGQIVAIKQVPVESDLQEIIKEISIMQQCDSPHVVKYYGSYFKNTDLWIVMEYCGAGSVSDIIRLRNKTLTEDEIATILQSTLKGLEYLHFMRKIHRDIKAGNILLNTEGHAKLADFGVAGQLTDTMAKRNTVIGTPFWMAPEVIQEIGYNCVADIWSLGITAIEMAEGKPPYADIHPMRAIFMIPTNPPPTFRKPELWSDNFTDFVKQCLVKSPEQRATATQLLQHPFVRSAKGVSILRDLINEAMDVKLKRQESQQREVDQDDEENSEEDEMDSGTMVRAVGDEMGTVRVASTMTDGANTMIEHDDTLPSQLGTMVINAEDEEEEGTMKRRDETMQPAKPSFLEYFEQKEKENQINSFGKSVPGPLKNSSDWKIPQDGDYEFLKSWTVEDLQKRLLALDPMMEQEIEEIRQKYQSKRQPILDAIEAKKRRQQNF
The note with it: MST1/STK4; for remaining activity at 0.5 µM / remaining activity at 0.1 µM: read-out: % Enzyme Activity (relative to DMSO controls); for remaining activity at 0.1 µM: 100 nM.
Excerpt: as §1

Test [3] concerns the target 363 human kinases (including Aurora A/B/C) (Homo sapiens, UniProt Q08345). The note with it: DDR1, [ATP] 100 µM; for remaining activity at 0.5 µM / remaining activity at 0.1 µM: read-out: % Enzyme Activity (relative to DMSO controls); for remaining activity at 0.1 µM: 100 nM.
Excerpt: as §1
Test [4] addresses 363 human kinases (including Aurora A/B/C) (Homo sapiens, UniProt Q96RG2). The note with it: PASK; for remaining activity at 0.5 µM / remaining activity at 0.1 µM: read-out: % Enzyme Activity (relative to DMSO controls); for remaining activity at 0.1 µM: 100 nM.
Excerpt: as §1
Test [5] deals with T2, 363 human kinases (including Aurora A/B/C) (Homo sapiens, UniProt O15264).
T2 sequence (O15264 1-365): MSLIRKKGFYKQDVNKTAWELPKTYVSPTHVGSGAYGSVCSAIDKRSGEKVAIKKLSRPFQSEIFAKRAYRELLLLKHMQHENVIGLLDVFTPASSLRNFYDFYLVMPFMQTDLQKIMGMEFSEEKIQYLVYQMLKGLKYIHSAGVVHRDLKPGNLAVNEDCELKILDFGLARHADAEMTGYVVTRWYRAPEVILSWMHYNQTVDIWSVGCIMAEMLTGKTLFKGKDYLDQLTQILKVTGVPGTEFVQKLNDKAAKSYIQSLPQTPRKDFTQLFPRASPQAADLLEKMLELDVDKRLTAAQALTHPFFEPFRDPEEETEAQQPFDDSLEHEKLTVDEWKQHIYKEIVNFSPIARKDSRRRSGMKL
The settings on record: P38d/MAPK13; for remaining activity at 0.5 µM / remaining activity at 0.1 µM: read-out: % Enzyme Activity (relative to DMSO controls); for remaining activity at 0.1 µM: 100 nM.
Excerpt: as §1

The target of test [6] is 363 human kinases (including Aurora A/B/C) (Homo sapiens, UniProt Q16620). The note with it: TRKB; for remaining activity at 0.1 µM: 100 nM.
Excerpt: as §1
The target of test [7] is T3, 363 human kinases (including Aurora A/B/C) (Homo sapiens, UniProt Q9HBY8).
T3 sequence (Q9HBY8 1-367): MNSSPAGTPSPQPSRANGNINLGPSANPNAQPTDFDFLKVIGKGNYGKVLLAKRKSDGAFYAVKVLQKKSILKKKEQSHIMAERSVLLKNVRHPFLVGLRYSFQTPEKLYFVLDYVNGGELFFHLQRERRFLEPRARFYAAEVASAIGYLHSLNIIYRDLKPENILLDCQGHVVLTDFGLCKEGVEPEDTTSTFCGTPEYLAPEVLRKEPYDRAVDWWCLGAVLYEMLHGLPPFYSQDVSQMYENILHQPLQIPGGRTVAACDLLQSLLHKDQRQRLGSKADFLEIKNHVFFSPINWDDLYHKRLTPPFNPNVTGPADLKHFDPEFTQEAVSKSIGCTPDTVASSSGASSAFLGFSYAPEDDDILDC
The settings on record: SGK2; for remaining activity at 0.5 µM / remaining activity at 0.1 µM: read-out: % Enzyme Activity (relative to DMSO controls); for remaining activity at 0.1 µM: 100 nM.
Excerpt: as §1

The target of test [8] is 363 human kinases (including Aurora A/B/C) (Homo sapiens, UniProt Q9UBS0). The note with it: p70S6Kb/RPS6KB2; for remaining activity at 0.5 µM / remaining activity at 0.1 µM: read-out: % Enzyme Activity (relative to DMSO controls); for remaining activity at 0.1 µM: 100 nM.
Excerpt: as §1
Test [9] concerns the target 363 human kinases (including Aurora A/B/C) (Homo sapiens, UniProt O75582). The settings on record: MSK1/RPS6KA5; for remaining activity at 0.5 µM / remaining activity at 0.1 µM: read-out: % Enzyme Activity (relative to DMSO controls); for remaining activity at 0.1 µM: 100 nM.
Excerpt: as §1
The target in test [10] is T4, 363 human kinases (including Aurora A/B/C) (Homo sapiens, UniProt P20794).
T4 sequence (P20794 1-623): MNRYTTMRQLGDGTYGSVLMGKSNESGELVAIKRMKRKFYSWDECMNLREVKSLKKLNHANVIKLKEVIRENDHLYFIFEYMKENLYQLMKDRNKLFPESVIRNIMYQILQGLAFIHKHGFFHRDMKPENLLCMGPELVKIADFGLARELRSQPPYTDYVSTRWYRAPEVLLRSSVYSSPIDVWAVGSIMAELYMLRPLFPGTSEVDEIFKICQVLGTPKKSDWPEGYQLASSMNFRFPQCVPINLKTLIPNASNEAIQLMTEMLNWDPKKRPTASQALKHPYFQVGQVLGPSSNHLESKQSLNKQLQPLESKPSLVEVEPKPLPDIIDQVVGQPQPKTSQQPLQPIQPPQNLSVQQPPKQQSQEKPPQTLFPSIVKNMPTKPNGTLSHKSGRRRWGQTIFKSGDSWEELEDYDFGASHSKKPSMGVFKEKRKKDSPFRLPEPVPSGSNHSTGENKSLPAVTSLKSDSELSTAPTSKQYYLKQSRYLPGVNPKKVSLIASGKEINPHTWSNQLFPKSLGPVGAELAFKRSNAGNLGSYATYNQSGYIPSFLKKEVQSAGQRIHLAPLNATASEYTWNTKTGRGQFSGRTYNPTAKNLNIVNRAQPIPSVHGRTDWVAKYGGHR
The settings on record: MAK; for remaining activity at 0.5 µM / remaining activity at 0.1 µM: read-out: % Enzyme Activity (relative to DMSO controls); for remaining activity at 0.1 µM: 100 nM.
Excerpt: as §1

In test [11] the target is 363 human kinases (including Aurora A/B/C) (Homo sapiens, UniProt P41279). The settings on record: COT1/MAP3K8, [ATP] 50 µM; for remaining activity at 0.5 µM / remaining activity at 0.1 µM: read-out: % Enzyme Activity (relative to DMSO controls); for remaining activity at 0.1 µM: 100 nM.
Excerpt: as §1
Test [12] addresses 363 human kinases (including Aurora A/B/C) (Homo sapiens, UniProt P04629). The settings on record: TRKA; for remaining activity at 0.1 µM: 100 nM.
Excerpt: as §1
Setting [13] is: 500 nM, read-out: % Enzyme Activity (relative to DMSO controls).
Setting [14] is: read-out: % Enzyme Activity (relative to DMSO controls).

Chain of 363 human kinases (including Aurora A/B/C) (Homo sapiens, UniProt P41279) (P41279 whole entry): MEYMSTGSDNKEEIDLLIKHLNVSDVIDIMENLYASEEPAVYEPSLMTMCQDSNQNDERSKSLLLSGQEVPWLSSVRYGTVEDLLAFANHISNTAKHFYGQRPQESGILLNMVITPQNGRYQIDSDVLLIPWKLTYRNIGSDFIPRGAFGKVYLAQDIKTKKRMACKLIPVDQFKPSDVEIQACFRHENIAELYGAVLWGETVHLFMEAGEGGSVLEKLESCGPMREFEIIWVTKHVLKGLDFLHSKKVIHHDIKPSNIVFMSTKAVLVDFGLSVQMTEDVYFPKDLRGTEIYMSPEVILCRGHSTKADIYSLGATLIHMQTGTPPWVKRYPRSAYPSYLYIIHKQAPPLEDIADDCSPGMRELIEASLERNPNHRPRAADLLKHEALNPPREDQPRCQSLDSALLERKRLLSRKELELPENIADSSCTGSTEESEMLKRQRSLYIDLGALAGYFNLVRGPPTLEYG
Chain of 363 human kinases (including Aurora A/B/C) (Homo sapiens, UniProt Q96RG2) (Q96RG2 whole entry): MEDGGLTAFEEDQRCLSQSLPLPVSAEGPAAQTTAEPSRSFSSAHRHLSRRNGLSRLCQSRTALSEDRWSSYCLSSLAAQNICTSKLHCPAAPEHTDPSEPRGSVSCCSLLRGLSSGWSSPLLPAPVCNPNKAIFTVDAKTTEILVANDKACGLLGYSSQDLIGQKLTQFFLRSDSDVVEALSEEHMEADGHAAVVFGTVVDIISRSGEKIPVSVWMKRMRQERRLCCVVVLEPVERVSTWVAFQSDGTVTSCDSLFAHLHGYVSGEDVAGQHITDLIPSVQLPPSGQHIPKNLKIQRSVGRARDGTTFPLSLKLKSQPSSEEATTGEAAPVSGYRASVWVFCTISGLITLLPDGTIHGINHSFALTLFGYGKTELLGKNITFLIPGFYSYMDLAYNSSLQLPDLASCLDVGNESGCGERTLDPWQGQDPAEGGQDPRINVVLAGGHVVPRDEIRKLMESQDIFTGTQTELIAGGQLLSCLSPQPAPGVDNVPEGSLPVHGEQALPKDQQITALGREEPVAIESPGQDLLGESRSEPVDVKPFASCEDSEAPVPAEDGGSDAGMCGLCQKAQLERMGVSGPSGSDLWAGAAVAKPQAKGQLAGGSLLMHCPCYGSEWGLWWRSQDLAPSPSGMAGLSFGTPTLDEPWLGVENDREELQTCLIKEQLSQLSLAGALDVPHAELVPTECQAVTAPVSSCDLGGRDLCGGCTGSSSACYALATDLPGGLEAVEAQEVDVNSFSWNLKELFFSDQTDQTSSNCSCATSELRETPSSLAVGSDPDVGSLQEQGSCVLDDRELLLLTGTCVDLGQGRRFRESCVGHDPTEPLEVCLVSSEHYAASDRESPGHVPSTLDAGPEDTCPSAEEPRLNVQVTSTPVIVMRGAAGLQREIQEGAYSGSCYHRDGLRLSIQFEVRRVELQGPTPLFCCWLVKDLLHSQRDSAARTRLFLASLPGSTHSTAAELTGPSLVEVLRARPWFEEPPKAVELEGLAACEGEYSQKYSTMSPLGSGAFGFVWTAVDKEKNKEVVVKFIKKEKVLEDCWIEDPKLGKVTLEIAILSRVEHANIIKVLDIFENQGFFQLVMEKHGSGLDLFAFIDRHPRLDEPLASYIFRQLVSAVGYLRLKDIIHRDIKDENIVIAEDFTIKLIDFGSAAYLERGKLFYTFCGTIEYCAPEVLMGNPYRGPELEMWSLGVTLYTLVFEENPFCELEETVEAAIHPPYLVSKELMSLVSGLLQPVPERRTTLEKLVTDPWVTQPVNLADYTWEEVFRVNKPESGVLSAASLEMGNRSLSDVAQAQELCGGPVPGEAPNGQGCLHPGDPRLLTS
Chain of 363 human kinases (including Aurora A/B/C) (Homo sapiens, UniProt Q16620) (Q16620 32-822): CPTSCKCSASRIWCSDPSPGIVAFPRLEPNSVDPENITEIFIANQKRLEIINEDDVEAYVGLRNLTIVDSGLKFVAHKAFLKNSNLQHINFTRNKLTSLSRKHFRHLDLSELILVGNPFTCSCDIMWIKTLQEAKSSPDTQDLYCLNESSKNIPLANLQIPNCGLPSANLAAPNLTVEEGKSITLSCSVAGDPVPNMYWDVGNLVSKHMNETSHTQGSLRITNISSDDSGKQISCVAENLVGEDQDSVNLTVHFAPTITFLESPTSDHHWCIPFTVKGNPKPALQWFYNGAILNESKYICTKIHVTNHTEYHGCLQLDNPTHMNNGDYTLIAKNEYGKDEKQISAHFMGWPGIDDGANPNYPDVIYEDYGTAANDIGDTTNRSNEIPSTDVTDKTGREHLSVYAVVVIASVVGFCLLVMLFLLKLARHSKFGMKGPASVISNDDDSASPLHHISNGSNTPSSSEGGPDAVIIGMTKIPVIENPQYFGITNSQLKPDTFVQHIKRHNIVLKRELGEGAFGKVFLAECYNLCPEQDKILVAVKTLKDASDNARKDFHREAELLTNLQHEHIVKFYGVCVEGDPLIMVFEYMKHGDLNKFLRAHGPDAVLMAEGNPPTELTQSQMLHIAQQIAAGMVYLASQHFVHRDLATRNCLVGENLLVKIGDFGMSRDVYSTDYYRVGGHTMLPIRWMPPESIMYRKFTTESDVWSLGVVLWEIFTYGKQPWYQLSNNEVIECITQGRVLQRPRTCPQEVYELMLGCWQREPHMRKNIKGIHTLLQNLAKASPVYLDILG
Chain of 363 human kinases (including Aurora A/B/C) (Homo sapiens, UniProt Q08345) (Q08345 19-913): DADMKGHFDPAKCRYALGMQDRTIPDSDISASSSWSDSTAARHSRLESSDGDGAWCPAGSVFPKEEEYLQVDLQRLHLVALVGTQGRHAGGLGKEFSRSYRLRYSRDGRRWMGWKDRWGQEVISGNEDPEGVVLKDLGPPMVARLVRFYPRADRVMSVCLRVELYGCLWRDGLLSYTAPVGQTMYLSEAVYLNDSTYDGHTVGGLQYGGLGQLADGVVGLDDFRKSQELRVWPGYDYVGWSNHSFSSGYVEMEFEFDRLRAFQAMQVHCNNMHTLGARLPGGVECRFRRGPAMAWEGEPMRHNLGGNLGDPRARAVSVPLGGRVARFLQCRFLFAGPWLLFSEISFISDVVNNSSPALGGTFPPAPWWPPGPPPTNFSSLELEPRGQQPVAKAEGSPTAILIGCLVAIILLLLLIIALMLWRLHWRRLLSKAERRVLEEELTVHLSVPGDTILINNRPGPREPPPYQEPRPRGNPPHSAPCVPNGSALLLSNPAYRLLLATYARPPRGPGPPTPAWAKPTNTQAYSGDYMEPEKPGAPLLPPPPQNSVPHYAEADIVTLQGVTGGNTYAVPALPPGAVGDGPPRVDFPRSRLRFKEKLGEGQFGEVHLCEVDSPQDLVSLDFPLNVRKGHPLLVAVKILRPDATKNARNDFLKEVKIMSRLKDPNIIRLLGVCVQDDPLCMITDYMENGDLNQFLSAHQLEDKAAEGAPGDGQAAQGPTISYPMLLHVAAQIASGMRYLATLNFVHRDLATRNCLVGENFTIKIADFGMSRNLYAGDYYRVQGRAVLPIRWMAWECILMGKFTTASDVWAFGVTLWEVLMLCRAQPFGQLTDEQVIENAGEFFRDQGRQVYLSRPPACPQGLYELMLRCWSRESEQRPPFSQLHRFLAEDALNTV
Chain of 363 human kinases (including Aurora A/B/C) (Homo sapiens, UniProt P04629) (P04629 33-796): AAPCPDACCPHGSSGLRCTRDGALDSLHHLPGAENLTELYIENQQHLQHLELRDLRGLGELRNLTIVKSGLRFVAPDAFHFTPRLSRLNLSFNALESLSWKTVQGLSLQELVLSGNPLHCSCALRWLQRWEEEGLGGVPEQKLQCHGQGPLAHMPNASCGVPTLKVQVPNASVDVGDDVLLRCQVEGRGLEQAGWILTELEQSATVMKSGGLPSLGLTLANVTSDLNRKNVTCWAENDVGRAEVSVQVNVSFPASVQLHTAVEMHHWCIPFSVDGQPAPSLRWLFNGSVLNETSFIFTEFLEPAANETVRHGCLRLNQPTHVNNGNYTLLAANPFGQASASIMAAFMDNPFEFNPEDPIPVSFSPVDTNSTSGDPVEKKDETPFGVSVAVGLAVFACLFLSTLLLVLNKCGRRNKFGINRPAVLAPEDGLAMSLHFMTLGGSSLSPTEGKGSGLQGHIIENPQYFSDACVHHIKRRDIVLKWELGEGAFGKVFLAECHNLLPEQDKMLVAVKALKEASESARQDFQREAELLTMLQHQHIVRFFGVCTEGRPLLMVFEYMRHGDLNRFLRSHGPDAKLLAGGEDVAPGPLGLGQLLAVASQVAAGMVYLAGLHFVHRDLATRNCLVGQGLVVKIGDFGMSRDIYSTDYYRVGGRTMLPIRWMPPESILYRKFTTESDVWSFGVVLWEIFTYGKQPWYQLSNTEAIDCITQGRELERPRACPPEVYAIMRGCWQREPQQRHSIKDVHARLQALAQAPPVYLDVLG
Chain of 363 human kinases (including Aurora A/B/C) (Homo sapiens, UniProt O75582) (O75582 whole entry): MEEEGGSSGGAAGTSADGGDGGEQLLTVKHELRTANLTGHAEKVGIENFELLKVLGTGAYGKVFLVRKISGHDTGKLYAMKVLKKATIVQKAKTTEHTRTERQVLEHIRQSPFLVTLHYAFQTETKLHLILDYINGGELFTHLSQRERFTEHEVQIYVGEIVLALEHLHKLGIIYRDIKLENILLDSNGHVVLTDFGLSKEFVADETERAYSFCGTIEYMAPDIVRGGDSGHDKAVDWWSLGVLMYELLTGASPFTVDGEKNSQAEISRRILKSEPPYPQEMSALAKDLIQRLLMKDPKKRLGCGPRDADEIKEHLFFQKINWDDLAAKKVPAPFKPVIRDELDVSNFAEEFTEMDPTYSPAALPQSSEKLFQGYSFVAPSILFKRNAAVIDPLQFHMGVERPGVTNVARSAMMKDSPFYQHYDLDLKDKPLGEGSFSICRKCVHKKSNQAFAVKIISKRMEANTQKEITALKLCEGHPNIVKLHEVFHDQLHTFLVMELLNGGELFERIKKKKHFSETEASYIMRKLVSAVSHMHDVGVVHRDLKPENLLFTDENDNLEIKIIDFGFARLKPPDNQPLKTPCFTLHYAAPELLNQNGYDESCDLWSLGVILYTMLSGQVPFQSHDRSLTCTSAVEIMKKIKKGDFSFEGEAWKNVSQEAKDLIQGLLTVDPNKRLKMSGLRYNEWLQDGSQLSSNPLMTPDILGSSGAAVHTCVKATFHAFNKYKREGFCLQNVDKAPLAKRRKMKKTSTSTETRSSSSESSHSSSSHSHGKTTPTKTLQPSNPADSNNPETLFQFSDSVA

`O=C(c1cccc(Cl)c1F)N1CCN(Cc2cccc(Nc3nccs3)n2)CC1` [MK-8745]: the “% Enzyme Activity (relative to DMSO controls)” value in test [1] (500 nM) worked out at 101.19%; in [2] (500 nM), 46.49%; in test [3] (500 nM), 19.23%; in test [4] (500 nM), 101.46%; in [5] (500 nM), 96.82%; in test [6] (500 nM) it was 8.70%. Moreover, the “% Enzyme Activity (relative to DMSO controls)” value in [7] (500 nM) is listed as 98.06%; in test [8] (500 nM) it was 97.78%; in test [9] (500 nM) it was 93.34%; in test [10] (500 nM), 86.85%; in test [11] (500 nM), 88.35%; in test [12] (500 nM), 32.47%. Also, the remaining activity at 0.5 µM in test [1] (500 nM) came out at 103%; in test [2] (500 nM), 46.6%; in test [3] (500 nM) it was 19.7%; in test [4] (500 nM), 103%; in [5] (500 nM), 100%; in test [6] (setting [13]) it was 9.04%. Further, the remaining activity at 0.5 µM in test [7] (500 nM) was 100%; in [8] (500 nM), 99.3%; in [9] (500 nM), 96.3%; in [10] (500 nM) it was 87%; in test [11] (500 nM) it was 91.3%; in [12] (setting [13]), 34.6%.

As for `CCn1cc(-c2ccnc3[nH]c(-c4cccc(CN(C)C)c4)cc23)c(-c2ccc(NC(=O)N(C)C)cc2)n1` [GSK1070916], the remaining activity at 0.1 µM came out at 95.4% in test [1]; 105% in test [2]; 26.2% in test [3]; 102% in [4]; 91.7% in test [5]; 108% in test [6] (setting [14]). Besides, the remaining activity at 0.1 µM came out at 102% in [7]; 110% in test [8]; 101% in test [9]; 100% in [10]; 87.8% in [11]; 87.7% in test [12] (setting [14]).

With `O=C(O)[C@]1(Cc2cccc(Nc3nccs3)n2)CC[C@@H](Oc2cccc(Cl)c2F)CC1` [MK-5108], the remaining activity at 0.1 µM amounted to 103% in [1]; 81.8% in test [2]; 7.97% in [3]; 100% in [4]; 98.5% in test [5]; 1.79% in [6] (setting [14]). Further, the remaining activity at 0.1 µM is 105% in test [7]; 100% in test [8]; 99.7% in [9]; 84.8% in [10]; 101% in [11]; 8.42% in test [12] (setting [14]). In addition, the remaining activity at 0.5 µM in test [1] (500 nM) came out at 96.2%; in [2] (500 nM), 65.6%; in test [3] (500 nM) it was 1.89%; in [4] (500 nM), 104%; in test [5] (500 nM), 82.6%; in test [7] (500 nM) it was 105%. The remaining activity at 0.5 µM in test [8] (500 nM) worked out at 99%; in [9] (500 nM), 86.8%; in test [10] (500 nM), 79.5%; in [11] (500 nM) it was 91%.

For the origin of these results see PMC4685510, “A Cell Biologist’s Field Guide to Aurora Kinase Inhibitors” (Frontiers in Oncology, 2015).
